Experiments:
IDH1 R132H = IDH1 R132H (Homo sapiens, UniProt O75874, R132H); experiment: Assay for IDH1 R132H inhibitors (NADPH/aKG, resazurin detection); assay type: biochemical; conditions: enzyme assay of Example 12; read-out: IDH1R132H IC50
Method in brief: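 Read-out is resorufin fluorescence (Ex544/Em590) 5 min after adding a 30 μM resazurin detection mix. Before that, mutant enzyme (0.2 μg/ml in its mix) ran 50 min at room temperature with compound, 8 uM NADPH and 2 mM aKG (mix levels) in Tris pH 7.5 with NaCl, MgCl2, BSA.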

HT1080 cells = experiment: Cellular assay for IDH1m inhibitors: inhibition of 2-HG production (LC-MS, 48 hours) in HT1080 cells; assay type: cell-based; conditions: Homo sapiens, HT-1080; inhibition of 2-HG production, HT1080 cells; read-out: HT1080 IC50
Method in brief: (§1)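 5000 cells/well, DMEM + 10% FBS, overnight 37 °C/5% CO2; compound added (0.2% DMSO final), 48 h; medium sampled for LC-MS 2-HG; IC50 vs DMSO control.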

U87MG cells = experiment: Cellular assay for IDH1m inhibitors: inhibition of 2-HG production (LC-MS, 48 hours) in U87MG cells; assay type: cell-based; conditions: Homo sapiens, U-87 MG, inhibition of 2-HG production, U87R132H cells; read-out: U87R132H IC50
Method in brief: as §1

Chain of IDH1 R132H (O75874 whole entry R132H): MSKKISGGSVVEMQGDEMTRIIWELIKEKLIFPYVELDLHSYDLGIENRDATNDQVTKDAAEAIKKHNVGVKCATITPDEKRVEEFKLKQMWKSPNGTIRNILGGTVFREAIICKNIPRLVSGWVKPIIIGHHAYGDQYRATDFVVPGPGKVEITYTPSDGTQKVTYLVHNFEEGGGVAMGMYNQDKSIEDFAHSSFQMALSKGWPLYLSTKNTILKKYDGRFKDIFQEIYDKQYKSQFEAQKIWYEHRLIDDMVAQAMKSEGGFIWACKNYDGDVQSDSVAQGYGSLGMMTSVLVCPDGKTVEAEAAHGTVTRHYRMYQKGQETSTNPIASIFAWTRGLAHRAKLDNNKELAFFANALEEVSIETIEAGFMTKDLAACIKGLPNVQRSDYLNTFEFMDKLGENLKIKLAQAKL

IC50 (IDH1 R132H) | IC50 (HT1080 cells) | IC50 (U87MG cells) | Structure (SMILES)
< 0.5 µM | < 0.5 µM | < 0.5 µM | C=Cc1cc(-c2cc(C#N)c(N3CCN(C(=O)C[C@H]4CCO4)[C@H](C)C3)nc2C2CC2)ccn1 [Compound 648, 2-cyclopropyl-6-((R)-3-methyl-4-(2-((R)-oxetan-2-yl)acetyl)piperazin-1-yl)-2′-vinyl-[3,4′-bipyridine]-5-carbonitrile]
< 0.5 µM | < 0.5 µM | < 0.5 µM | C#Cc1ccnc(N(c2cc(C#C)ccn2)c2cc(C#N)c(N3CCN(C(=O)CCOC)[C@H](C)C3)nc2C2CC2)c1 [Compound 714, (R)-5-(bis(4-ethynylpyridin-2-yl)amino)-6-cyclopropyl-2-(4-(3-methoxypropanoyl)-3-methylpiperazin-1-yl)nicotinonitrile]
< 0.5 µM | < 0.5 µM | < 0.5 µM | C=Cc1cc(-c2cc(C#N)c(N3CCN(C(=O)CCOC)[C@H](C(C)C)C3)nc2C2CC2)c2ccncc2n1 [Compound 611, (R)-6-cyclopropyl-2-(3-isopropyl-4-(3-methoxypropanoyl)piperazin-1-yl)-5-(2-vinyl-1,7-naphthyridin-4-yl)nicotinonitrile]
< 0.5 µM | 1 to 10 µM | 0.5 to 1 µM | COCCC(=O)N1CCN(c2nc(C3CC3)c(-c3c(C)noc3C)c(C)c2C#N)C[C@H]1C [Compound 351, (R)-6-cyclopropyl-5-(3,5-dimethyl-isoxazol-4-yl)-2-[4-(3-methoxy-propionyl)-3-methyl-piperazin-1-yl]-4-methyl-nicotinonitrile]
< 0.5 µM | 1 to 10 µM | 1 to 10 µM | C=CS(=O)(=O)Nc1cccc(-c2cc(C#N)c(N3CCN(C(=O)CCOC)[C@H](C)C3)nc2C2CC2)c1 [Compound 429, (R)—N-(3-(5-cyano-2-cyclopropyl-6-(4-(3-methoxypropanoyl)-3-methylpiperazin-1-yl)pyridin-3-yl)phenyl)ethenesulfonamide]
< 0.5 µM | < 0.5 µM | < 0.5 µM | C=Cc1cc(-c2cc(C#N)c(N3CCN(C(=O)CCO)[C@H](C4CC4)C3)nc2C2CC2)ccn1 [Compound 527]
< 0.5 µM | < 0.5 µM | < 0.5 µM | C=Cc1cc(-c2cc(C#N)c(N3CCN(C(=O)CCO)[C@H](C4CC4)C3)nc2C2CC2)ncn1 [Compound 663, (R)-6-cyclopropyl-2-(3-cyclopropyl-4-(3-hydroxypropanoyl)piperazin-1-yl)-5-(6-vinylpyrimidin-4-yl)nicotinonitrile]
< 0.5 µM | 0.5 to 1 µM | 0.5 to 1 µM | COCCC(=O)N1CCN(c2nc(C3CC3)c(-c3ccc4nccn4c3)cc2C#N)C[C@H]1C [Compound 436, (R)-6-cyclopropyl-5-imidazo[1,2-a]pyridin-6-yl-2-[4-(3-methoxy-propionyl)-3-methyl-piperazin-1-yl]-nicotinonitrile]
< 0.5 µM | 0.5 to 1 µM | 0.5 to 1 µM | COCCC(=O)N1CCN(c2nc(C3CC3)c(-c3ccc(N)cc3)c(C)c2C#N)C[C@H]1C [Compound 411, (R)-5-(4-aminophenyl)-6-cyclopropyl-2-(4-(3-methoxypropanoyl)-3-methylpiperazin-1-yl)-4-methylnicotinonitrile]
< 0.5 µM | < 0.5 µM | < 0.5 µM | C=Cc1ncc2c(-c3cc(C#N)c(N4CCN(C(=O)C5CC5)[C@H](C5CC5)C4)nc3C3CC3)cccc2n1 [Compound 636, (R)-2-(4-(cyclopropanecarbonyl)-3-cyclopropylpiperazin-1-yl)-6-cyclopropyl-5-(2-vinylquinazolin-5-yl)nicotinonitrile]
< 0.5 µM | 0.5 to 1 µM | 0.5 to 1 µM | COCCC(=O)N1CCN(c2nc(C3CC3)c(-c3ccc4c(c3)CC(=O)N4)cc2C#N)C[C@H]1C [Compound 384, (R)-6-cyclopropyl-2-(4-(3-methoxypropanoyl)-3-methylpiperazin-1-yl)-5-(2-oxoindolin-5-yl)nicotinonitrile]
< 0.5 µM | < 0.5 µM | < 0.5 µM | C=Cc1cc(Nc2cc(C#N)c(N3CCN(C(=O)CCO)[C@H](C(C)C)C3)nc2C2CC2)ccn1 [Compound 754, (R)-6-cyclopropyl-2-(4-(3-hydroxypropanoyl)-3-isopropylpiperazin-1-yl)-5-(2-vinylpyridin-4-ylamino)nicotinonitrile]
< 0.5 µM | < 0.5 µM | < 0.5 µM | C=Cc1cc(Nc2cc(C#N)c(N3CCN(C(=O)CCOC)[C@H](C)C3)nc2C2CC2)ccn1 [Compound 642, (R)-6-cyclopropyl-2-(4-(3-methoxypropanoyl)-3-methylpiperazin-1-yl)-5-((2-vinylpyridin-4-yl)amino)nicotinonitrile]
< 0.5 µM | < 0.5 µM | < 0.5 µM | C=Cc1cnc2c(-c3cc(C#N)c(N4CCN(C(=O)CCO)[C@H](C5CC5)C4)nc3C3CC3)cccc2n1 [Compound 657, (R)-6-cyclopropyl-2-(3-cyclopropyl-4-(3-hydroxypropanoyl)piperazin-1-yl)-5-(2-vinylquinoxalin-5-yl)nicotinonitrile]
< 0.5 µM | < 0.5 µM | < 0.5 µM | C=Cc1cc(Nc2cc(C#N)c(N3CCN(C(=O)C[C@H]4CCO4)[C@H](C4CC4)C3)nc2C2CC2)ccn1 [Compound 751, 6-cyclopropyl-2-((R)-3-cyclopropyl-4-(2-((R)-oxetan-2-yl)acetyl)piperazin-1-yl)-5-(2-vinylpyridin-4-ylamino)nicotinonitrile]
0.5 to 1 µM | 1 to 10 µM | 1 to 10 µM | COCCC(=O)N1CCN(c2nc(C3CC3)c(-c3cccc(NC(=O)C(F)F)c3)cc2C#N)C[C@H]1C [Compound 432, (R)—N-(3-(5-cyano-2-cyclopropyl-6-(4-(3-methoxypropanoyl)-3-methylpiperazin-1-yl)pyridin-3-yl)phenyl)-2,2-difluoroacetamide]
< 0.5 µM | < 0.5 µM | < 0.5 µM | C=Cc1ccnc(Nc2cc(C#N)c(N3CCN(C(=O)CCO)[C@H](C)C3)nc2C2CC2)c1 [Compound 707, (R)-6-cyclopropyl-2-(4-(3-hydroxypropanoyl)-3-methylpiperazin-1-yl)-5-((4-vinylpyridin-2-yl)amino)nicotinonitrile]
< 0.5 µM | 1 to 10 µM | 1 to 10 µM | C=CS(=O)(=O)Nc1cccc(-c2cc(C#N)c(N3CCN(C(=O)C4CC4)[C@H](C4CC4)C3)nc2C2CC2)c1 [Compound 451]
< 0.5 µM | < 0.5 µM | < 0.5 µM | C=Cc1cc(-c2cc(C#N)c(N3CCN(C(=O)CCO)[C@H](C(C)C)C3)nc2C2CC2)c2cccnc2n1 [Compound 629, (R)-6-cyclopropyl-2-(4-(3-hydroxypropanoyl)-3-isopropylpiperazin-1-yl)-5-(2-vinyl-1,8-naphthyridin-4-yl)nicotinonitrile]
< 0.5 µM | 1 to 10 µM | 1 to 10 µM | C=CS(=O)(=O)Nc1cccc(-c2c(C3CC3)nc(N3CCN(C(=O)C4CC4)[C@H](C4CC4)C3)c(C#N)c2C)c1 [Compound 470, (R)—N-(3-(5-cyano-6-(4-(cyclopropanecarbonyl)-3-cyclopropylpiperazin-1-yl)-2-cyclopropyl-4-methylpyridin-3-yl)phenyl)ethenesulfonamide]
0.5 to 1 µM | 1 to 10 µM | 1 to 10 µM | COCCC(=O)N1CCN(c2nc(C3CC3)c(-c3ccncc3)c(C)c2C#N)C[C@H]1C [Compound 268, (R)-2-cyclopropyl-6-(4-(3-methoxypropanoyl)-3-methylpiperazin-1-yl)-4-methyl-3,4′-bipyridine-5-carbonitrile]
< 0.5 µM | 1 to 10 µM | 0.5 to 1 µM | COCCC(=O)N1CCN(c2nc(C3CC3)c(-c3ccc(NC(C)=O)cc3)cc2C#N)C[C@H]1C [Compound 412, (R)—N-(4-(5-cyano-2-cyclopropyl-6-(4-(3-methoxypropanoyl)-3-methylpiperazin-1-yl)pyridin-3-yl)phenyl)acetamide]
< 0.5 µM | < 0.5 µM | < 0.5 µM | C=Cc1cc(-c2cc(C#N)c(N3CCN(C(=O)CCOC)[C@H](C)C3)nc2C2CC2)c2ccncc2n1 [Compound 580, (R)-6-cyclopropyl-2-(4-(3-methoxypropanoyl)-3-methylpiperazin-1-yl)-5-(2-vinyl-1,7-naphthyridin-4-yl)nicotinonitrile]
< 0.5 µM | < 0.5 µM | < 0.5 µM | C=CC(=O)N1CCC=C(c2c(C3CC3)nc(N3CCN(C(=O)CCO)[C@H](C(C)C)C3)c(C#N)c2C)C1 [Compound 762, (R)-1′-acryloyl-2-cyclopropyl-6-(4-(3-hydroxypropanoyl)-3-isopropylpiperazin-1-yl)-4-methyl-1′,2′,5′,6′-tetrahydro-[3,3′-bipyridine]-5-carbonitrile]
0.5 to 1 µM | 1 to 10 µM | 1 to 10 µM | COCCC(=O)N1CCN(c2nc(C3CC3)c(-c3cccc(NC(=O)[C@@H](C)Cl)c3)cc2C#N)C[C@H]1C [Compound 462, (R)-2-chloro-N-(3-(5-cyano-2-cyclopropyl-6-((R)-4-(3-methoxypropanoyl)-3-methylpiperazin-1-yl)pyridin-3-yl)phenyl)propanamide]
< 0.5 µM | < 0.5 µM | < 0.5 µM | C=Cc1cc(-c2cc(C#N)c(N3CCN(C(=O)CCOC)[C@H](C(C)C)C3)nc2C2CC2)ncn1 [Compound 639, (R)-6-cyclopropyl-2-(3-isopropyl-4-(3-methoxypropanoyl)piperazin-1-yl)-5-(6-vinylpyrimidin-4-yl)nicotinonitrile]
